Literature values as cited in patent US20220370378A1 (SOCIETE DES PRODUITS NESTLE S.A., priority 2019, published 2022).

Columns and labels:
[1] = humans
[2] = system: GLUT4 translocation in skeletal muscle cells; conditions: single-dose administration, compared among three inositol isomers

SMILES: O[C@H]1[C@H](O)[C@@H](O)[C@H](O)[C@@H](O)[C@@H]1O [scyllo-inositol, (1r,2r,3r,4r,5r,6r)-Cyclohexane-1,2,3,4,5,6-hexol]
- mean time to reach the maximum level after ingestion [1]: about 3.8 h
- GLUT4 translocation [2]: most efficiently among three inositol isomers
